System: TREM-1
Test: Rat model of myocardial permanent ischemia (myocardial infarction), physiologic parameters and micro-TEP imaging
Type: in vivo
Protocol: Adult male Wistar rats (360-380 g) were used. All rats were anaesthetized with ketamine (100 mg/kg, intramuscularly) and mechanically ventilated. After a left thoracotomy, the left coronary artery was identified and ligated with a 6-0 prolene surgical suture. LAD occlusion was confirmed by a change in myocardial color from red to white in the ischemia area (Left ventricle). The chest was closed and the skin was sutured with 6-0 silk. The animals returned to their cage where they were supervised until their complete recovery. The postoperative mortality rate of all rats was 20%.
After surgical LAD occlusion, importance of ischemic area was evaluated by micro-TEP imaging. Animals were then randomized to receive peptide (5 mg/kg) every 24 h for 5 days or placebo (vehicle).
A further evaluation was performed at 6 weeks by micro-TEP imaging and conductance catheter (Millar) in order to study the treatment effect on myocardial remodeling and myocardial function.
In all animals, approximately 70 MBq of ^18F-FDG (in a 0.3-0.5 ml volume) was injected intravenously and under a short anaesthesia (1.5-2.5% of isoflurane inhalation) 60 min prior to initiating PET recording. Recording was acquired in list mode under continuous anaesthesia by isoflurane, using a dedicated small animal PET system (Inveon, Siemens, Knoxville, Tenn., USA). The animals were positioned in the prone position and placed on a heating pad to maintain a body temperature within the normal range. The animals were connected to a standard ECG monitor by three electrodes placed on the inner surfaces of limb extremities. Recording times were 20 min for 18F emission and 6 min for 57Co transmission. The coincidence timing window was set to 3.4 ns and the energy window between 350 and 650 keV. Images were reconstructed in 16 cardiac intervals, providing a temporal resolution of 11-15 ms for common heart rate values. Under these conditions, the axial spatial resolution was less than 1.5 mm. In addition, on LV rat phantoms obtained by a stereolithography process, a precise determination of the actual cavity volumes was provided by FDG PET images above the level of 100 μl corresponding to the lower limit for the LV endsystolic volume in adult.
We finally investigated whether the modulation of the inflammatory response conferred by TREM-1- and TLT-1-derived peptides was able to translate into cardiac function improvement after a severe MI. We performed a permanent coronary artery ligation in rats before randomisation and imaging as described above.

Question: With “LQEEDAGEYGCM (listed as Homo sapiens) [TLT1-LR12]” as the sequence, how does the Body weight (Baseline) read?
Answer: The Body weight was 313 ± 51 g.

Question: And the EDV (Baseline)?
Answer: Its EDV is 417 ± 92 µL.

Question: What about the EF (Baseline) of the same sequence?
Answer: The EF was 48 ± 9%.

Question: And the ESV (Baseline)?
Answer: The ESV was 215 ± 62 µL.

Question: And the Heart rate (Baseline)?
Answer: Its Heart rate is 400 ± 26 bpm.

Question: And the “MI Areas” value (Baseline)?
Answer: Its value is 22 ± 11 % of LV.

Question: What about the “MT Areas” value (Baseline) of the same sequence?
Answer: The value was 54 ± 30 mm^2.

Question: What about the Systolic blood pressure (Baseline) of the same sequence?
Answer: The Systolic blood pressure was 136 ± 17 mmHg.

Question: And the Body weight (Six weeks)?
Answer: Its Body weight is 426 ± 49 g.

Question: What about the “Body weight, difference with baseline” value (Six weeks) of the same sequence?
Answer: The value was 113 ± 51 g.

Question: And the EDV (Six weeks)?
Answer: Its EDV is 615 ± 161 µL.

Question: And the “EDV, difference with baseline” value (Six weeks)?
Answer: The value was 198 ± 95 µL.

Question: What about the EF (Six weeks) of the same sequence?
Answer: The EF was 50 ± 8%.

Question: And the “EF, difference with baseline” value (Six weeks)?
Answer: The value was 2 ± 7%.

Question: What about the ESV (Six weeks) of the same sequence?
Answer: The ESV was 313 ± 128 µL.

Question: What about the “ESV, difference with baseline” value (Six weeks) of the same sequence?
Answer: The value was 99 ± 80 µL.

Question: What about the Heart rate (Six weeks) of the same sequence?
Answer: Its Heart rate is 393 ± 23 bpm.

Question: What about the “Heart rate, difference with baseline” value (Six weeks) of the same sequence?
Answer: The value was −8 ± 22 bpm.

Question: And the “MI Areas (% of LV), difference with baseline” value (Six weeks)?
Answer: The value was −6.0 ± 8.1 % of LV.

Question: And the “MI Areas (mm^2), difference with baseline” value (Six weeks)?
Answer: Its value is −5 ± 23 mm^2.

Question: And the Systolic blood pressure (Six weeks)?
Answer: The Systolic blood pressure was 136 ± 17 mmHg.

Question: What about the “Systolic blood pressure, difference with baseline” value (Six weeks) of the same sequence?
Answer: Its value is −12 ± 26 mmHg.

Source: patent US9657081B2, “Inhibiting peptides derived from triggering receptor expressed on myeloid cells-1 (TREM-1) TREM-like transcript 1 (TLT-1) for treatment of cardiovascular diseases” (INSERM (Institut National de la Sante et de la Recherche …, priority 2013, dated 2017)
